Data: BindingDB's records for doi:10.1021/jm701311r (Georgia Institute of Technology, 2008)

Legend:
Assay in all cases: AE Enzyme Inhibition Assay
[1] = target: T1, Clan CD, family C13, asparaginyl endopeptidase-like cysteine peptidase (Trichomonas vaginalis (strain ATCC PRA-98 / G3), UniProt A2DYT2)
T1 sequence (A2DYT2 whole entry): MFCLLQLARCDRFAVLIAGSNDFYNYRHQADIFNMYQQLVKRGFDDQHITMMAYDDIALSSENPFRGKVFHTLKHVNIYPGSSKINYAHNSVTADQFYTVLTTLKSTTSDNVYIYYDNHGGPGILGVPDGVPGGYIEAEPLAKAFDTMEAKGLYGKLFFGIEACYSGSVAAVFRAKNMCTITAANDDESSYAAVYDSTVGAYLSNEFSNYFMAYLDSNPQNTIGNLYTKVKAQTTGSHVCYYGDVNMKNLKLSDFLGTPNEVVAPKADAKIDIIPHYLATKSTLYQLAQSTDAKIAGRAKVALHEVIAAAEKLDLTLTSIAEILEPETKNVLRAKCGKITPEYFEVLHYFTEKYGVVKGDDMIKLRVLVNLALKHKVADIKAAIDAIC
Experimental: (§1) AE activity in the induction medium was measured with the substrate Cbz-Ala-Ala-Asn-AMC. In a black 96-well microtiter plate, aza-peptidyl inhibitors were added to the reaction buffer containing the activated enzyme, and allowed to incubate at room temperature for 20 min. Then, substrate Cbz- Ala-Ala-Asn-AMC was added and the reaction allowed proceeding for 20 min. Plotting the relative fluorescence units (RFU)/min against the inhibitor concentration (uM) permitted calculation of the IC50 value.

[2] = target: T2, Legumain (Schistosoma mansoni, UniProt Q9NFY9)
T2 sequence (Q9NFY9 whole entry): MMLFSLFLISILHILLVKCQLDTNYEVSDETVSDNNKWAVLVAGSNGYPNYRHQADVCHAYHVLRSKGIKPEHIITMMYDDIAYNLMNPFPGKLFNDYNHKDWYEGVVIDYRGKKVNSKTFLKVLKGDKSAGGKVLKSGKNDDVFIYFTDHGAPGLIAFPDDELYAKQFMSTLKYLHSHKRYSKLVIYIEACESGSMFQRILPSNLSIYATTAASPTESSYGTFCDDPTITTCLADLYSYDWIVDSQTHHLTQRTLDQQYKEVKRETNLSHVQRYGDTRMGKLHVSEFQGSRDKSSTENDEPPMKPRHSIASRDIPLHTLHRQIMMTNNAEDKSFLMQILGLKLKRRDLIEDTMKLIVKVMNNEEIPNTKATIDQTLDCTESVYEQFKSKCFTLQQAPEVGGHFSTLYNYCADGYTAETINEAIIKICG
Experimental: as §1

[3] = target: T3, Legumain (Ixodes ricinus, UniProt Q6PRC7); settings: 25 °C
T3 sequence (Q6PRC7 whole entry): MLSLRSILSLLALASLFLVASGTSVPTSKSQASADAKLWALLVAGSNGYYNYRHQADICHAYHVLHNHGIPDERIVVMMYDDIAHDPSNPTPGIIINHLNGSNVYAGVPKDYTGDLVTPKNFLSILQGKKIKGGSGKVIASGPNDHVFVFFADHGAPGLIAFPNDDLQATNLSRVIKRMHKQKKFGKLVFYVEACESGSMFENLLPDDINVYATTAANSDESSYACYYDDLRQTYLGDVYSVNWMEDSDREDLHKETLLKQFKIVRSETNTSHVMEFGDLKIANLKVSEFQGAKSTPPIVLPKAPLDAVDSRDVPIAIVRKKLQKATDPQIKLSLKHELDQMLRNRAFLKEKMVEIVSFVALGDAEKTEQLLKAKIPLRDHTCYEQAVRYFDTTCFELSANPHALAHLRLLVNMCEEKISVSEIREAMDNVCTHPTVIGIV
Experimental: as §1

| Compound | IC50 ([1]; 25 °C) [µM] | IC50 ([2]; pH 6.8, 22 °C) [µM] | IC50 [3] [µM] | IC50 ([1]; pH 6.8, 22 °C) [µM] | IC50 ([2]; 25 °C) [µM] |
| --- | --- | --- | --- | --- | --- |
| CC=CC=CC(=O)N(CC(N)=O)NC(=O)[C@H](C)NC(=O)[C@H](C)NC(=O)OCc1ccccc1 [benzyl N-[(1S)-1-{[(1S)-1-[N'-(carbamoylmethyl)-N'-(2E,4E)-hexa-2,4-dienoylhydrazinecarbonyl]ethyl]carbamoyl}ethyl]carbamate] | 8 |  |  |  |  |
| CCCCN(CCCC)C(=O)C=CC(=O)N(CC(N)=O)NC(=O)[C@H](C)NC(=O)[C@H](C)NC(=O)OCc1ccccc1 [benzyl N-[(1S)-1-{[(1S)-1-[N'-(carbamoylmethyl)-N'-[(2E)-3-(dibutylcarbamoyl)prop-2-enoyl]hydrazinecarbonyl]ethyl]carbamoyl}ethyl]carbamate] |  | 0.55 | 0.1 | 1 |  |
| C[C@H](NC(=O)OCc1ccccc1)C(=O)N[C@@H](C)C(=O)NN(CC(N)=O)C(=O)C=CC(=O)N(C)C(Cc1ccccc1)C(=O)N(C)CCc1ccccc1 (stereo partly drawn) [benzyl N-[(1S)-1-{[(2S)-1-[(2E)-3-[N-(carbamoylmethyl)hydrazido]-N-methyl-N-{1-[methyl(2-phenylethyl)carbamoyl]-2-phenylethyl}prop-2-enamide]-1-oxopropan-2-yl]carbamoyl}ethyl]carbamate] | 0.08 |  | 0.3 |  | 0.75 |
| C[C@H](NC(=O)OCc1ccccc1)C(=O)N[C@@H](C)C(=O)NN(CC(N)=O)C(=O)C=CC(=O)N(Cc1ccccc1)Cc1ccc2ccccc2c1 [benzyl N-[(1S)-1-{[(2S)-1-[(2E)-N-benzyl-3-[N-(carbamoylmethyl)hydrazido]-N-(naphthalen-2-ylmethyl)prop-2-enamide]-1-oxopropan-2-yl]carbamoyl}ethyl]carbamate] | 0.006 |  | 0.008 |  | 0.07 |
| CCOC(=O)C=CC(=O)N(CC(N)=O)NC(=O)[C@H](C)NC(=O)[C@H](C)NC(=O)OCc1ccccc1 [ethyl (2E)-4-[(2S)-2-[(2S)-2-{[(benzyloxy)carbonyl]amino}propanamido]-N'-(carbamoylmethyl)propanehydrazido]-4-oxobut-2-enoate] |  |  | 0.0045 | 0.0045 |  |
| COc1ccc(CN(Cc2ccccc2)C(=O)C=CC(=O)N(CC(N)=O)NC(=O)[C@H](C)NC(=O)[C@H](C)NC(=O)OCc2ccccc2)cc1 [benzyl N-[(1S)-1-{[(2S)-1-[(2E)-N-benzyl-3-[N-(carbamoylmethyl)hydrazido]-N-[(4-methoxyphenyl)methyl]prop-2-enamide]-1-oxopropan-2-yl]carbamoyl}ethyl]carbamate] | 0.0023 | 0.09 | 0.012 |  |  |
| C[C@H](NC(=O)OCc1ccccc1)C(=O)N[C@@H](C)C(=O)NN(CC(N)=O)C(=O)C=CC(=O)N(Cc1ccco1)Cc1ccco1 [benzyl N-[(1S)-1-{[(1S)-1-{N'-[(2E)-3-[bis(furan-2-ylmethyl)carbamoyl]prop-2-enoyl]-N'-(carbamoylmethyl)hydrazinecarbonyl}ethyl]carbamoyl}ethyl]carbamate] | 5 |  | 15 |  | 0.9 |
| C[C@H](NC(=O)OCc1ccccc1)C(=O)N[C@@H](C)C(=O)NN(CC(N)=O)C(=O)C=CC(=O)N1CCc2ccccc21 [benzyl N-[(1S)-1-{[(1S)-1-[N'-(carbamoylmethyl)-N'-[(2E)-4-(2,3-dihydro-1H-indol-1-yl)-4-oxobut-2-enoyl]hydrazinecarbonyl]ethyl]carbamoyl}ethyl]carbamate] | 0.05 |  | 0.018 |  | 0.07 |
| C[C@H](NC(=O)OCc1ccccc1)C(=O)N[C@@H](C)C(=O)NN(CC(N)=O)C(=O)C=CC(=O)N(Cc1ccccc1)c1ccccc1 [benzyl N-[(1S)-1-{[(2S)-1-[(2E)-N-benzyl-3-[N-(carbamoylmethyl)hydrazido]-N-phenylprop-2-enamide]-1-oxopropan-2-yl]carbamoyl}ethyl]carbamate] | < 0.001 | 0.07 | < 0.001 |  |  |
| C[C@H](NC(=O)OCc1ccccc1)C(=O)N[C@@H](C)C(=O)NN(CC(N)=O)C(=O)C=CC(=O)Nc1ccccc1 [benzyl N-[(1S)-1-{[(2S)-1-[(2E)-3-[N-(carbamoylmethyl)hydrazido]-N-phenylprop-2-enamide]-1-oxopropan-2-yl]carbamoyl}ethyl]carbamate] |  | 0.7 | 0.01 | 0.02 |  |
| C[C@H](NC(=O)OCc1ccccc1)C(=O)N[C@@H](C)C(=O)NN(CC(N)=O)C(=O)C=CC(=O)N(Cc1ccccc1)Cc1ccccc1 [benzyl N-[(1S)-1-{[(2S)-1-[(2E)-N,N-dibenzyl-3-[N-(carbamoylmethyl)hydrazido]prop-2-enamide]-1-oxopropan-2-yl]carbamoyl}ethyl]carbamate] | 0.01 | 0.045 | 0.45 |  |  |
| CCN(CC)C(=O)C=CC(=O)N(CC(N)=O)NC(=O)[C@H](C)NC(=O)[C@H](C)NC(=O)OCc1ccccc1 [benzyl N-[(1S)-1-{[(1S)-1-[N'-(carbamoylmethyl)-N'-[(2E)-3-(diethylcarbamoyl)prop-2-enoyl]hydrazinecarbonyl]ethyl]carbamoyl}ethyl]carbamate] |  |  | 2.7 | 2 |  |
| C[C@H](NC(=O)OCc1ccccc1)C(=O)N[C@@H](C)C(=O)NN(CC(N)=O)C(=O)C=CC(=O)N1Cc2ccccc2C1 [benzyl N-[(1S)-1-{[(1S)-1-[N'-(carbamoylmethyl)-N'-[(2E)-4-(2,3-dihydro-1H-isoindol-2-yl)-4-oxobut-2-enoyl]hydrazinecarbonyl]ethyl]carbamoyl}ethyl]carbamate] | 0.02 |  | 0.0045 |  | 0.3 |
| C[C@H](NC(=O)OCc1ccccc1)C(=O)N[C@@H](C)C(=O)NN(CC(N)=O)C(=O)C=CC(=O)N1CCCCC1 [benzyl N-[(1S)-1-{[(2S)-1-[(2E)-N-(carbamoylmethyl)-4-oxo-4-(piperidin-1-yl)but-2-enehydrazido]-1-oxopropan-2-yl]carbamoyl}ethyl]carbamate] |  | 1 |  | 0.5 |  |
| C[C@H](NC(=O)OCc1ccccc1)C(=O)N[C@@H](C)C(=O)NN(CC(N)=O)C(=O)C=CC(=O)OCc1ccccc1 [benzyl (2E)-3-{N'-[(2S)-2-[(2S)-2-{[(benzyloxy)carbonyl]amino}propanamido]propanoyl]-N-(carbamoylmethyl)hydrazinecarbonyl}prop-2-enoate] |  |  | < 0.001 | 0.005 |  |
| C[C@H](NC(=O)OCc1ccccc1)C(=O)N[C@@H](C)C(=O)NN(CC(N)=O)C(=O)C=Cc1ccco1 [benzyl N-[(1S)-1-{[(1S)-1-[N'-(carbamoylmethyl)-N'-[(2E)-3-(furan-2-yl)prop-2-enoyl]hydrazinecarbonyl]ethyl]carbamoyl}ethyl]carbamate] |  | > 2 | 7.5 |  |  |
| C[C@H](NC(=O)OCc1ccccc1)C(=O)N[C@@H](C)C(=O)NN(CC(N)=O)C(=O)C=CC(=O)N(C)CCc1ccccc1 [benzyl N-[(1S)-1-{[(2S)-1-[(2E)-3-[N-(carbamoylmethyl)hydrazido]-N-methyl-N-(2-phenylethyl)prop-2-enamide]-1-oxopropan-2-yl]carbamoyl}ethyl]carbamate] | 0.05 | 0.6 |  |  |  |
| C[C@H](NC(=O)OCc1ccccc1)C(=O)N[C@@H](C)C(=O)NN(CC(N)=O)C(=O)C=CC(=O)N(C)Cc1ccccc1 [benzyl N-[(1S)-1-{[(2S)-1-[(2E)-N-benzyl-3-[N-(carbamoylmethyl)hydrazido]-N-methylprop-2-enamide]-1-oxopropan-2-yl]carbamoyl}ethyl]carbamate] | 0.00055 |  | < 0.001 |  |  |
| C[C@H](NC(=O)OCc1ccccc1)C(=O)N[C@@H](C)C(=O)NN(CC(N)=O)C(=O)C=CC(=O)c1ccccc1 [benzyl N-[(1S)-1-{[(2S)-1-[(2E)-N-(carbamoylmethyl)-4-oxo-4-phenylbut-2-enehydrazido]-1-oxopropan-2-yl]carbamoyl}ethyl]carbamate] | 10 |  | > 20 |  |  |
